In ChEMBL document CHEMBL1201862, “PubChem BioAssay data set” (2004):
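Dose response: 5 concentrations. Exposure: 48 h. Format: 96-well plates. Endpoint: linear interpolation; highest concentration if not reached. Abbreviation: GI50, concentration required for 50% inhibition of growth.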 Calls of active or inactive are those of the source. No stated cut-off is given here; in the data, active = GI50 up to about 1.1 µM and inactive = higher.

Columns and labels:
Experiment in all cases: NCI tumour cell line growth inhibition, 48 h
HOP-92 = system: HOP-92
OVCAR-8 = system: OVCAR-8
CCRF-CEM = system: CCRF-CEM
M14 = system: M14
NCI/ADR-RES = system: NCI/ADR-RES
SK-MEL-2 = system: SK-MEL-2
SF-539 = system: SF-539
K562 = system: K562
NCI-H460 = system: NCI-H460
HOP-62 = system: HOP-62
BT-549 = system: BT-549
MDA-MB-435 = system: MDA-MB-435
SF-268 = system: SF-268
OVCAR-5 = system: OVCAR-5
MCF7 = system: MCF7
UACC-257 = system: UACC-257
HT-29 = system: HT-29
Hs-578T = system: Hs-578T
EKVX = system: EKVX

Row | SMILES | GI50 (HOP-92) | GI50 (OVCAR-8) | GI50 (CCRF-CEM) | GI50 (M14) | GI50 (NCI/ADR-RES) | GI50 (SK-MEL-2) | GI50 (SF-539) | GI50 (K562) | GI50 (NCI-H460) | GI50 (HOP-62) | GI50 (BT-549) | GI50 (MDA-MB-435) | GI50 (SF-268) | GI50 (OVCAR-5) | GI50 (MCF7) | GI50 (UACC-257) | GI50 (HT-29) | GI50 (Hs-578T) | GI50 (EKVX)
1 | COc1ccc(OC)c2c1C(=O)C(O)=C(Cl)C2=O | > 100 µM (inactive) | > 100 µM (inactive) | > 100 µM (inactive) | > 100 µM (inactive) | > 100 µM (inactive) | > 100 µM (inactive) | > 100 µM (inactive) | > 100 µM (inactive) | > 100 µM (inactive) | > 100 µM (inactive) | > 100 µM (inactive) | > 100 µM (inactive) | > 100 µM (inactive) | > 100 µM (inactive) | > 100 µM (inactive) | > 100 µM (inactive) | > 100 µM (inactive) | > 100 µM (inactive) | –
2 | COc1ccc(-c2cc(-c3ccc(Nc4ccnc5cc(C(F)(F)F)ccc45)cc3)nc(N)c2C#N)c2ccccc12 | > 100 µM (inactive) | – | – | > 100 µM (inactive) | > 100 µM (inactive) | > 100 µM (inactive) | > 100 µM (inactive) | – | > 100 µM (inactive) | > 100 µM (inactive) | 36.6 µM (inactive) | > 100 µM (inactive) | > 100 µM (inactive) | > 100 µM (inactive) | 97.9 µM (inactive) | – | – | 65.2 µM (inactive) | > 100 µM (inactive)
3 | CC(C)(C)OC(=O)NCC(O)CNC(=O)OC(C)(C)C | > 100 µM (inactive) | > 100 µM (inactive) | > 100 µM (inactive) | > 100 µM (inactive) | > 100 µM (inactive) | – | > 100 µM (inactive) | > 100 µM (inactive) | > 100 µM (inactive) | > 100 µM (inactive) | > 100 µM (inactive) | > 100 µM (inactive) | > 100 µM (inactive) | > 100 µM (inactive) | > 100 µM (inactive) | > 100 µM (inactive) | – | > 100 µM (inactive) | > 100 µM (inactive)
4 | CC(=O)C1(C)CC(C#N)(C#N)C(C#N)=C1N (configuration not stated) | 21 µM (inactive) | > 100 µM (inactive) | > 100 µM (inactive) | > 100 µM (inactive) | > 100 µM (inactive) | > 100 µM (inactive) | > 100 µM (inactive) | > 100 µM (inactive) | – | > 100 µM (inactive) | > 100 µM (inactive) | > 100 µM (inactive) | > 100 µM (inactive) | > 100 µM (inactive) | > 100 µM (inactive) | > 100 µM (inactive) | > 100 µM (inactive) | > 100 µM (inactive) | 26.5 µM (inactive)
5 | O=C(OCC1CCCN2CCCCC12)c1cccnc1 (configuration not stated) | > 100 µM (inactive) | > 100 µM (inactive) | > 100 µM (inactive) | – | > 100 µM (inactive) | > 100 µM (inactive) | > 100 µM (inactive) | > 100 µM (inactive) | > 100 µM (inactive) | – | > 100 µM (inactive) | > 100 µM (inactive) | > 100 µM (inactive) | – | > 100 µM (inactive) | > 100 µM (inactive) | > 100 µM (inactive) | > 100 µM (inactive) | > 100 µM (inactive)
6 | CC1(C)CC2=C(Sc3ccccc3N2)C(=O)C1C(=O)C(=O)Nc1cccc([N+](=O)[O-])c1 (configuration not stated) | > 100 µM (inactive) | > 100 µM (inactive) | 0.0738 µM (active) | > 100 µM (inactive) | > 100 µM (inactive) | > 100 µM (inactive) | > 100 µM (inactive) | 66.8 µM (inactive) | > 100 µM (inactive) | – | > 100 µM (inactive) | > 100 µM (inactive) | > 100 µM (inactive) | > 100 µM (inactive) | > 100 µM (inactive) | > 100 µM (inactive) | > 100 µM (inactive) | > 100 µM (inactive) | > 100 µM (inactive)
7 | Cc1cc(C)nc(NC(=S)Nc2ccc(Cl)cc2)c1 | – | 20.1 µM (inactive) | > 100 µM (inactive) | > 100 µM (inactive) | 29.2 µM (inactive) | > 100 µM (inactive) | 53.2 µM (inactive) | > 100 µM (inactive) | 66.7 µM (inactive) | 35.9 µM (inactive) | > 100 µM (inactive) | > 100 µM (inactive) | 21.3 µM (inactive) | 29.2 µM (inactive) | > 100 µM (inactive) | > 100 µM (inactive) | > 100 µM (inactive) | 21.5 µM (inactive) | 17.4 µM (inactive)
8 | CC(C)(C)OC(=O)Cn1ncn(NC(=O)Cc2ccccc2)c1=O | > 10 µM (inactive) | > 10 µM (inactive) | > 10 µM (inactive) | > 10 µM (inactive) | > 10 µM (inactive) | – | > 10 µM (inactive) | > 10 µM (inactive) | > 10 µM (inactive) | > 10 µM (inactive) | > 10 µM (inactive) | > 10 µM (inactive) | > 10 µM (inactive) | > 10 µM (inactive) | > 10 µM (inactive) | > 10 µM (inactive) | > 10 µM (inactive) | > 10 µM (inactive) | > 10 µM (inactive)
